The target in assay [1] is T1, human LPA1 (Homo sapiens, UniProt Q92633).
T1 construct: expressed in transfected cells; host or cells: CHO-K1
The assay is described as follows: In vitro LPA1 calcium flux antagonist assay - Bioduro protocol. It is filed as cell-based. The conditions noted are these: CHO-K1 cells overexpressing human LPA1 and G15a, LPA challenge at EC80. Put shortly:
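Calcium mobilization read on FLIPR after EC80 LPA was added to compound-pretreated (30 min) CHO-K1 cells co-expressing human LPA1 and G15a. Cells were starved 4 h and dye-loaded with Fluo-8 AM/2.5 mM probenecid in HBSS-Hepes; inhibition normalized between DMSO and LPA-control RFU.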
In general terms: A change in cytosolic calcium serves as a functional read-out for many receptors and channels.

The target of assay [2] is T1, human LPA1. The assay is described as follows: In vitro LPA1 functional antagonist assay (calcium mobilization, FLIPR). The class given is cell-based. The conditions noted are these: CHO-K1 cells overexpressing human LPA1, Oleoyl LPA challenge at EC80. The protocol:
In Vitro LPA1 Functional Antagonist Assay
CHO-K1 cells overexpressing human LPA1 were seeded in a total volume of 20 μL into black-walled, clear-bottom. Poly-D-lysine coated 384-well microplates and incubated at 37° C., for the appropriate time prior to testing. Assays were performed in 1× Dye Loading Buffer consisting of 1× Dye, 1× Additive A and 2.5 mM Probenecid in HBSS/20 mM Hepes. Probenicid was prepared fresh. Cells were loaded with dye prior to testing. Media was aspirated from cells and replaced with 20 μL Dye Loading Buffer. Cells were incubated for 30-60 minutes at 37° C. After dye loading, cells were removed from the incubator and 10 μL 3× test compound was added. Cells were incubated for 30 minutes at room temperature in the dark to equilibrate plate temperature followed by Oleoyl LPA challenge at EC80. Compound antagonist activity was measured on a FLIPR Tetra (MSD). Calcium mobilization was monitored for 2 minutes and 10 μL Oleoyl LPA in HBSS/20 mM Hepes was added to the cells 5 seconds into the assay. For LPA EC80 determination, after dye loading, cells were removed from the incubator and 10 μL HBSS/20 mM Hepes was added. 3× vehicle was included in the buffer. Cells were incubated for 30 minutes at room temperature in the dark to equilibrate plate temperature. Intermediate dilution of LPA stocks was performed to generate 4×LPA samples in assay buffer. LPA agonist activity was measured on a FLIPR Tetra (MSD). Calcium mobilization was monitored for 2 minutes and 10 μL 4×LPA sample in HBSS/20 mM Hepes was added to the cells 5 seconds into the assay. Compound activity was analyzed using CBIS data analysis suite (ChemInnovation, CA). Percentage inhibition is calculated using the following formula: % Inhibition=100%×(1−(mean RFU of test sample−mean RFU of vehicle control)/(mean RFU of LPA control−mean RFU of vehicle control)).
Table B1 and Table B2 show the biological activity of compounds in in vitro LPA1 functional antagonist assay. Activity of the tested compounds provided in Table B1 is as follows: +++=IC50<1 μM; ++=IC50 1 μM−10 μM; +=IC50>10 μM.

The mark [3] stands for this setting: calcium mobilization on FLIPR Tetra, read-out: IC50.
[4] abbreviates: Table B3, read-out: Activity (IC50 class).
Where [5] appears, read: Table B1, read-out: Activity (IC50 class).

Consider 16 compounds from US11884627B2, “Compounds and compositions for treating conditions associated with LPA receptor activity” (Lhotse Bio, Inc., priority 2022, dated 2024).

T1 sequence (Q92633 whole entry): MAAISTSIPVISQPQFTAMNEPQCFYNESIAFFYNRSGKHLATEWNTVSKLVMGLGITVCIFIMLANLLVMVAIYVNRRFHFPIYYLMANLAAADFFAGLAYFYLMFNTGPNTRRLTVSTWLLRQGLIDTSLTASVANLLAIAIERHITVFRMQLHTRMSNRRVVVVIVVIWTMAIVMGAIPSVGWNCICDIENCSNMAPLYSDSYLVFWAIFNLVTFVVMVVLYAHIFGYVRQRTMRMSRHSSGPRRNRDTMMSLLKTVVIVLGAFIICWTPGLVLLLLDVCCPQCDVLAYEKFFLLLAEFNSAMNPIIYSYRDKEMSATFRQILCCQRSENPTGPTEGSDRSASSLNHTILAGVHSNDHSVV

For `COc1cc(-c2ccc(NC3(C(=O)O)CCOCC3)cc2CCC2CCOC2)cc(OC)c1C` (single isomer, unassigned) [Compound 185, 4-((3′,5′-dimethoxy-4′-methyl-2-(2-(tetrahydrofuran-3-yl)ethyl)-[1,1′-biphenyl]-4-yl)amino)tetrahydro-2H-pyran-4-carboxylic acid], the IC50 is 12.6 nM at human LPA1 [1] (setting [3]); under 100 nM at human LPA1 [1] (setting [4]); 9.54 nM at human LPA1 [2] (Table B2, read-out: IC50).

With `COc1cc(-c2ccc(NCCC(=O)O)cc2COC2Cc3ccccc3C2)cc(OC)c1C` [Compound 101, 3-((2-(((2,3-dihydro-1H-inden-2-yl)oxy)methyl)-3′,5′-dimethoxy-4′-methyl-[1,1′-biphenyl]-4-yl)amino)propanoic acid], the IC50 at human LPA1 [1] (setting [3]) is 340 nM; on human LPA1 [1] (setting [4]) it was 100 to 1000 nM; on human LPA1 [2] (setting [5]) it was under 1000 nM; on human LPA1 [2] (Table B2, read-out: IC50) it was 27.2 nM.

As to `COc1cc(-c2ccc(NCCC(=O)O)cc2COCc2ccccc2)ccc1C(F)F` [Compound 102], the IC50 on human LPA1 [2] (setting [5]) was 1000 to 10000 nM; at human LPA1 [2] (Table B2, read-out: IC50), 2490 nM.

Take `COc1cc(OC)cc(-c2ccc(NCCC(=O)O)cc2COC2Cc3ccccc3C2)c1` [Compound 103]: the 50% inhibitory concentration (IC50) on human LPA1 [2] (setting [5]) was 1000 to 10000 nM; on human LPA1 [2] (Table B2, read-out: IC50) it was 1540 nM.

Turning to `COc1cc(OC)cc(-c2ccc(OCCC(=O)O)cc2COC2Cc3ccccc3C2)c1` [Compound 104], the IC50 was 628 nM at human LPA1 [1] (setting [3]); 100 to 1000 nM on human LPA1 [1] (setting [4]); under 1000 nM on human LPA1 [2] (setting [5]); 162 nM on human LPA1 [2] (Table B2, read-out: IC50).

Turning to `COc1cc(-c2ccc(OCCC(=O)O)cc2COC2Cc3ccccc3C2)cc(OC)c1C` [Compound 105, 3-((2-(((2,3-dihydro-1H-inden-2-yl)oxy)methyl)-3′,5′-dimethoxy-4′-methyl-[1,1′-biphenyl]-4-yl)oxy)propanoic acid], the IC50 at human LPA1 [1] (setting [3]) is 245 nM; at human LPA1 [1] (setting [4]), 100 to 1000 nM; on human LPA1 [2] (setting [5]), under 1000 nM; on human LPA1 [2] (Table B2, read-out: IC50), 13.6 nM.

Turning to `COc1cc(-c2ccc(NC3(C(=O)O)CC3)cc2COC2Cc3ccccc3C2)cc(OC)c1C` [Compound 109, 1-((2-(((2,3-dihydro-1H-inden-2-yl)oxy)methyl)-3′,5′-dimethoxy-4′-methyl-[1,1′-biphenyl]-4-yl)amino)cyclopropane-1-carboxylic acid], the concentration for half-maximal inhibition (IC50) was 94.1 nM on human LPA1 [1] (setting [3]); under 100 nM on human LPA1 [1] (setting [4]); under 1000 nM on human LPA1 [2] (setting [5]); 2.68 nM on human LPA1 [2] (Table B2, read-out: IC50).

For the compound `COc1cc(-c2ccc(NC3(C(=O)O)CCOCC3)cc2COC2CC2)c(F)c(OC)c1C` [Compound 256, 4-((2-(cyclopropoxymethyl)-2′-fluoro-3′,5′-dimethoxy-4′-methyl-[1,1′-biphenyl]-4-yl)amino)tetrahydro-2H-pyran-4-carboxylic acid], the IC50 at human LPA1 [1] (setting [3]) was 16.5 nM; on human LPA1 [1] (setting [4]) it was under 100 nM; on human LPA1 [2] (Table B2, read-out: IC50) it was 10.3 nM.

For the compound `CCOc1c(C)ccc(-c2ccc(NC3(C(=O)O)CCOCC3)cc2COC2CCCC2)c1C` [Compound 280], the IC50 at human LPA1 [1] (setting [3]) was 8.12 nM; at human LPA1 [1] (setting [4]), under 100 nM; at human LPA1 [2] (Table B2, read-out: IC50), 18.6 nM.

In the case of `COc1cc(-c2ccc(NC3(C(=O)O)CCOCC3)cc2COC2CCCC2)c(C(F)F)c(OC)n1` [Compound 283], the IC50 at human LPA1 [1] (setting [3]) is 11.5 nM; on human LPA1 [1] (setting [4]), under 100 nM; on human LPA1 [2] (Table B2, read-out: IC50), 10.9 nM.

`CCCOc1cccc(-c2ccc(NC3(C(=O)O)CCOCC3)cc2COC2CCCC2)c1F` [Compound 284]: the IC50 on human LPA1 [1] (setting [3]) is 11.9 nM; on human LPA1 [1] (setting [4]) it was under 100 nM; on human LPA1 [2] (Table B2, read-out: IC50) it was 3.97 nM.

In the case of `Cc1c(OC2CC2)cccc1-c1ccc(NC2(C(=O)O)CCOCC2)cc1COC1CCCC1` [Compound 285], the IC50 is 13.9 nM at human LPA1 [1] (setting [3]); under 100 nM on human LPA1 [1] (setting [4]); 6.62 nM on human LPA1 [2] (Table B2, read-out: IC50).

With `Cc1c(OC2CC2)cccc1-c1ccc(NC2(C(=O)O)CCOCC2)cc1COC1CC1` [Compound 294, 4-((3′-cyclopropoxy-2-(cyclopropoxymethyl)-2′-methyl-[1,1′-biphenyl]-4-yl)amino)tetrahydro-2H-pyran-4-carboxylic acid], the IC50 is 5.85 nM on human LPA1 [1] (setting [3]); under 100 nM on human LPA1 [1] (setting [4]); 7.15 nM on human LPA1 [2] (Table B2, read-out: IC50).

As to `CCOc1cccc(-c2ccc(NC3(C(=O)O)CCOCC3)cc2COC2CC2)c1Cl` [Compound 295, 4-((2′-chloro-2-(cyclopropoxymethyl)-3′-ethoxy-[1,1′-biphenyl]-4-yl)amino)tetrahydro-2H-pyran-4-carboxylic acid], the IC50 on human LPA1 [1] (setting [3]) is 3.31 nM; at human LPA1 [1] (setting [4]), under 100 nM; at human LPA1 [2] (Table B2, read-out: IC50) it was 7.94 nM.

For the compound `CCOc1cc(OC)cc(-c2ccc(NC3(C(=O)O)CCOCC3)cc2CCC2CC2)c1F` [Compound 298], the IC50 on human LPA1 [1] (setting [3]) was 0.763 nM; at human LPA1 [1] (setting [4]) it was under 100 nM; at human LPA1 [2] (Table B2, read-out: IC50) it was 2.64 nM.

Consider `CCOc1cccc(-c2ccc(NC3(C(=O)O)CCOCC3)cc2COC2CC2)c1C` [Compound 355, 4-((2-(cyclopropoxymethyl)-3′-ethoxy-2′-methyl-[1,1′-biphenyl]-4-yl)amino)tetrahydro-2H-pyran-4-carboxylic acid], for which the IC50 is 3.02 nM at human LPA1 [1] (setting [3]); under 100 nM at human LPA1 [1] (setting [4]); 7.53 nM at human LPA1 [2] (Table B2, read-out: IC50).

In general, IC50 refers to the point on the concentration scale where inhibition reaches its midpoint.
